Results reported in patent US10881110B2, “Herbicidal compositions comprising isoxazolo[5,4-b]pyridines” (BASF SE, priority 2014, dated 2021).
Several values for one entry are separate records, joined by “and”; a condition that tells them apart may be missing. Identical values can stand only once.

How the values were obtained:
Test in all cases: greenhouse post-emergence herbicidal test
GALAP = format: in vivo, Galium aparine; design: key to herbicidal activity against GALAP found: rating on a scale from 0 to 100; conditions: post emergence
Summary of the method: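 Herbicidal activity scored on a 0 (no damage) to 100 (plants destroyed) scale, usually 20 days after water-based spraying of 1–15 cm plants grown in loamy sand at 10-25 °C or 20-35 °C depending on species. Components were applied from 10% emulsion concentrates; Colby's E=X+Y−(X·Y/100) gives the additive expectation.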

PAPRH = format: in vivo, Papaver rhoeas; design: key: rating on a scale from 0 to 100
Summary of the method: (§1)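 Post-emergence spray on 1–15 cm plants in medium loamy sand pots; actives as 10% w/w EC diluted in water. 10-25° C / 20-35° C per species. Visual score 20 d after treatment, 0 = no damage, 100 = full kill; Colby expected value E=X+Y−(X·Y/100).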

POLPE = format: in vivo, Persicaria maculosa; design: key: scale 0 to 100
Method: The culture containers used were plastic pots containing medium loamy sand with approximately 4.6% of humus and 69.9% sand as substrate. The seeds of the test plants were sown separately for each species.
For the post-emergence treatment, the test plants were grown to a plant height of from 1 to 15 cm, depending on the plant habit, and only then treated with the active compounds which had been suspended or emulsified in water. To this end, the test plants were either sown directly, and grown in the same containers, or they were first grown separately as seedlings and transplanted into the test containers a few days prior to treatment.
Depending on the species, the plants were kept at 10-25° C. and 20-35° C., respectively.
The test period extended over 1 to 3 weeks. During this time, the plants were tended and their response to the individual treatments was evaluated 20 days after treatment except mentioned otherwise.
Evaluation was carried out using a scale from 0 to 100. 100 means no emergence of the plants, or complete destruction of at least the above-ground parts, and 0 means no damage or normal course of growth.
The respective stated components A and B, and, if appropriate, C, were formulated as a 10% by weight strength emulsion concentrate and, with addition of the amount of solvent system, introduced into the spray liquor used for applying the active compound. In the examples, the solvent used was water.
In the examples below, using the method of S. R. Colby (1967) “Calculating synergistic and antagonistic responses of herbicide combinations”, Weeds 15, p. 22 ff., the value E, which is expected if the activity of the individual active compounds is only additive, was calculated. E=X+Y−(X·Y/100)

STEME = format: in vivo, Stellaria media; design: key: scale 0 to 100
Summary of the method: as §1

SORVU = format: in vivo; conditions: 6 days after treatment
[1] = a.i. g/ha: I.1 15.6, B.67 125, 20 days after treatment
[2] = a.i. g/ha: I.1 20.8, B.67 62.5, 20 days after treatment
[3] = a.i. g/ha: I.1 31.25, B.67 125, 20 days after treatment
[4] = a.i. g/ha: I.1 62.5, B.191 225, 20 days after treatment
[5] = applied alone at 31.25 g/ha a.i.
[6] = I.1 15.62 g/ha, B.103 15 g/ha a.i.
[7] = 6 days after treatment, g/ha a.i.: I.1 31.25, B.96 35, mixture 31.25+35

## O=C(O)c1cc(C2CC2)nc2onc(C3CC3)c12 [I.1]
GALAP; I.1 62.5 g/ha, B.103 7.5 g/ha a.i.
  herbicidal activity against GALAP found: 50
GALAP; I.1 62.5 g/ha, B.95 2 g/ha a.i.
  herbicidal activity against GALAP found: 60
GALAP; [1]
  herbicidal activity against GALAP found: 20%
GALAP; [2]
  herbicidal activity against GALAP found: 0%
GALAP; [3]
  herbicidal activity against GALAP found: 75%
GALAP; a.i. g/ha: I.1 31.25, B.92 0.5, 20 days after treatment
  herbicidal activity against GALAP found: 65%
GALAP; [4]
  herbicidal activity against GALAP found: 65%
GALAP; a.i. g/ha: I.1 62.5, B.67 62.5, 20 days after treatment
  herbicidal activity against GALAP found: 10%
GALAP; a.i. g/ha: I.1 62.5, B.69 25, 20 days after treatment
  herbicidal activity against GALAP found: 65%
GALAP; a.i. g/ha: I.1 62.5, B.77 75, 20 days after treatment
  herbicidal activity against GALAP found: 10%
GALAP; a.i. g/ha: I.1 62.5, B.82 31.25, 20 days after treatment
  herbicidal activity against GALAP found: 65%
GALAP; application rate a.i.: I.1 31.25 g/ha, B.84 (paraquat-dichloride) 17.5 g/ha, alone or as mixture (composition 1.84)
  herbicidal activity against GALAP found: 65
GALAP; application rate a.i.: I.1 62.5 g/ha, B.107 (topramezone) 6 g/ha, alone or as mixture (composition 1.107)
  herbicidal activity against GALAP found: 10
GALAP; application rate a.i.: I.1 125 g/ha, B.113 (glyphosate) 33.75 g/ha, alone or as mixture (composition 1.113)
  herbicidal activity against GALAP found: 80
GALAP; application rate a.i.: I.1 125 g/ha, B.113 (glyphosate) 135 g/ha, alone or as mixture (composition 1.113)
  herbicidal activity against GALAP found: 80
GALAP; [5]
  herbicidal activity against GALAP found: 50
GALAP; applied alone at 62.5 g/ha a.i.
  herbicidal activity against GALAP found: 90
GALAP; applied alone at 125 g/ha a.i.
  herbicidal activity against GALAP found: 65 and 95 and 90
PAPRH; 62.5 g/ha a.i.
  herbicidal activity against PAPRH found: 50
PAPRH; [6]
  herbicidal activity against PAPRH found: 30
PAPRH; I.1 15.62 g/ha, B.88 2 g/ha a.i.
  herbicidal activity against PAPRH found: 70
PAPRH; I.1 31.25 g/ha, B.103 15 g/ha a.i.
  herbicidal activity against PAPRH found: 30
PAPRH; I.1 31.25 g/ha, B.88 1 g/ha a.i.
  herbicidal activity against PAPRH found: 75
PAPRH; I.1 31.25 g/ha, B.88 2 g/ha a.i.
  herbicidal activity against PAPRH found: 75
PAPRH; I.1 31.25 g/ha, B.95 1 g/ha a.i.
  herbicidal activity against PAPRH found: 75
PAPRH; I.1 62.5 g/ha, B.57 2 g/ha a.i.
  herbicidal activity against PAPRH found: 75
PAPRH; I.1 62.5 g/ha, B.88 1 g/ha a.i.
  herbicidal activity against PAPRH found: 75
PAPRH; I.1 62.5 g/ha, B.88 2 g/ha a.i.
  herbicidal activity against PAPRH found: 75
PAPRH; I.1 62.5 g/ha, B.95 1 g/ha a.i.
  herbicidal activity against PAPRH found: 75
PAPRH; I.1 alone 31.25 g/ha a.i.
  herbicidal activity against PAPRH found: 70
PAPRH; application rate a.i.: I.1 62.5 g/ha, B.40 (imazethapyr) 7.5 g/ha, alone or as mixture (composition 1.40)
  herbicidal activity against PAPRH found: 65
PAPRH; application rate a.i.: I.1 62.5 g/ha, B.87 (carfentrazone-ethyl) 1.75 g/ha, alone or as mixture (composition 1.87)
  herbicidal activity against PAPRH found: 85
PAPRH; [5]
  herbicidal activity against PAPRH found: 65
POLPE; 31.25 g/ha a.i.
  herbicidal activity against POLPE found: 45 and 70
POLPE; [7]
  herbicidal activity against POLPE found: 10
POLPE; application rate a.i.: I.1 31.25 g/ha, B.139 (pyroxasulfone) 12.5 g/ha, alone or as mixture (composition 1.139)
  herbicidal activity against POLPE found: 30
STEME; 31.25 g/ha a.i.
  herbicidal activity against STEME found: 70
STEME; 62.5 g/ha a.i.
  herbicidal activity against STEME found: 65
STEME; [7]
  herbicidal activity against STEME found: 60
STEME; [6]
  herbicidal activity against STEME found: 60
STEME; I.1 15.62 g/ha, B.89 25 g/ha a.i.
  herbicidal activity against STEME found: 0
STEME; I.1 31.25 g/ha, B.89 12.5 g/ha a.i.
  herbicidal activity against STEME found: 0
STEME; I.1 31.25 g/ha, B.89 25 g/ha a.i.
  herbicidal activity against STEME found: 0
STEME; I.1 alone 31.25 g/ha a.i.
  herbicidal activity against STEME found: 30
STEME; a.i. g/ha: I.1 2.3, B.67 62.5, 20 days after treatment
  herbicidal activity against STEME found: 0%
STEME; a.i. g/ha: I.1 6.9, B.67 62.5, 20 days after treatment
  herbicidal activity against STEME found: 0%
STEME; [1]
  herbicidal activity against STEME found: 0%
STEME; [2]
  herbicidal activity against STEME found: 50%
STEME; a.i. g/ha: I.1 31.25, B.190 62.5, 20 days after treatment
  herbicidal activity against STEME found: 70%
STEME; [3]
  herbicidal activity against STEME found: 70%
STEME; a.i. g/ha: I.1 31.25, B.67 125, 20 days after treatment, sub-table r36-r43
  herbicidal activity against STEME found: 70%
STEME; [4]
  herbicidal activity against STEME found: 85%
SORVU; g/ha a.i.: I.1 31.25, B.96 140, mixture 31.25+140
  herbicidal activity against SORVU found: 0
SORVU; g/ha a.i.: I.1 62.5, naptalam 200, mixture 62.5+200
  herbicidal activity against SORVU found: 20
